Results taken from patent US20230102554A1 (GB002, INC., priority 2019, published 2023).

Columns and labels:
[1] = target: T1, Human PDGFRα, cytoplasmic domain (GST-PDGFRα) (Homo sapiens, UniProt P16234); test: Human PDGFRα biochemical inhibition assay (off-chip Mobility Shift Assay)
T1 construct: made in house

[2] = target: T2, Human PDGFRβ, cytoplasmic domain (GST-PDGFRβ) (Homo sapiens, UniProt P09619); test: Human PDGFRβ biochemical inhibition assay (off-chip Mobility Shift Assay)
T2 construct: made in house
T2 sequence (P09619 with tags, fused parts or gaps): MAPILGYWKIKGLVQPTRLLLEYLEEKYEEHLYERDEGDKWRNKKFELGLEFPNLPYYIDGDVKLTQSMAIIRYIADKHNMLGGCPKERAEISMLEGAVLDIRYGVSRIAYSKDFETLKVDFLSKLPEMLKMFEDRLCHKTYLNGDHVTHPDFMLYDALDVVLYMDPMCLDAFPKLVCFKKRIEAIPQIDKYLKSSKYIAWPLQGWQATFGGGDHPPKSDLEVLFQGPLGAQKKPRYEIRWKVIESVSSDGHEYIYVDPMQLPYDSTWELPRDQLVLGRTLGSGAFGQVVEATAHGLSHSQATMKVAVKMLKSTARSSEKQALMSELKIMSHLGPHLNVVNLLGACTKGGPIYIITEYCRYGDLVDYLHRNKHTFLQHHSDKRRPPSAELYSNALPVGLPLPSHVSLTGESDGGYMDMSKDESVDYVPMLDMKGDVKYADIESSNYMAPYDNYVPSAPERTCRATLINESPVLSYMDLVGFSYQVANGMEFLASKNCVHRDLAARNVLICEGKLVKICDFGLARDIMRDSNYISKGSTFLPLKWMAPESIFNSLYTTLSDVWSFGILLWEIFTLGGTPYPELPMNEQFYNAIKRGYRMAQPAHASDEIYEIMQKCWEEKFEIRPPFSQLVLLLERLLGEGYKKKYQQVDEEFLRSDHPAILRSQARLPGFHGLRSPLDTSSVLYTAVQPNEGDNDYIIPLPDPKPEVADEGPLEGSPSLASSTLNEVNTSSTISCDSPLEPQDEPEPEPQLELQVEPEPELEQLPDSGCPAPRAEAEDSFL
Method in brief: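 GST-tagged cytoplasmic domain (aa 557-1106) from baculovirus was incubated 1 h at room temperature with compound, CSKtide, ATP at Km and Mg²⁺ in HEPES buffer, pH 7.5. Phosphorylated and unphosphorylated peptide were separated by off-chip mobility shift, and the product ratio P/(P+S) gave percent inhibition.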

T1 sequence (P16234 550-1089 T674I): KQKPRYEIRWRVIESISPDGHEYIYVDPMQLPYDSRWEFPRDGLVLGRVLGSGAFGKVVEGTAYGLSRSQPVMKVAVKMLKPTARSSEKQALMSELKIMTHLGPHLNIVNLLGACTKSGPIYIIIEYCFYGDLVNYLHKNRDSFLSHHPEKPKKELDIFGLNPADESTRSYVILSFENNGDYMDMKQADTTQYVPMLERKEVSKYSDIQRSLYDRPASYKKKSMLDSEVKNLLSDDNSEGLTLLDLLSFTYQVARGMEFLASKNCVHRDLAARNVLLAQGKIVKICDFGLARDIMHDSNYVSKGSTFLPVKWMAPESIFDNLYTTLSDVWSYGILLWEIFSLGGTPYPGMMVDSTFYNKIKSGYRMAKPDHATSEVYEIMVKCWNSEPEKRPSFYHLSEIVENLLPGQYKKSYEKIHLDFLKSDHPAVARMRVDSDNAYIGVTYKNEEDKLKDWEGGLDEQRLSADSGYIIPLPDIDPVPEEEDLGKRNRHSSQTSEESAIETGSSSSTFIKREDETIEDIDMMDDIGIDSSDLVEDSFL

| IC50 [1] [nM] | IC50 [2] [nM] | SMILES |
| --- | --- | --- |
| < 300 | ≥ 1000 | CCNc1ccc(C(=O)Nc2cccc([C@H](C)Nc3cnc4cn(CC)nc4n3)c2)cn1 [Compound 394, (S)-N-(3-(1-((2-ethyl-2H-pyrazolo[3,4-b]pyrazin-6-yl)amino)ethyl)phenyl)-6-(ethylamino)nicotinamide] |
| < 300 | < 300 | Cc1n[nH]c2ncc(N[C@@H](C)c3cccc(NC(=O)c4cc(C(F)(F)F)n(C)n4)c3)nc12 [Compound 547, (S)-1-methyl-N-(3-(1-((3-methyl-1H-pyrazolo[3,4-b]pyrazin-5-yl)amino)ethyl)phenyl)-5-(trifluoromethyl)-1H-pyrazole-3-carboxamide] |
| < 300 | < 300 | C[C@H](Nc1cnc2cc(C(F)F)sc2n1)c1cc(NC(=O)c2ccc(C(F)(F)F)nc2)ccc1F [Compound 618, (S)-N-(3-(1-((6-(difluoromethyl)thieno[2,3-b]pyrazin-3-yl)amino)ethyl)-4-fluorophenyl)-6-(trifluoromethyl)nicotinamide] |
| < 300 | < 300 | CCn1cc2ncc(N[C@@H](C)c3cccc(NC(=O)c4ccc(CN5CCN(C)CC5)c(C(F)F)c4)c3)nc2n1 [Compound 504, (S)-3-(difluoromethyl)-N-(3-(1-((2-ethyl-2H-pyrazolo[3,4-b]pyrazin-6-yl)amino)ethyl)phenyl)-4-((4-methylpiperazin-1-yl)methyl)benzamide] |
| < 300 | 300 to 1000 | CCn1cc2ncc(N[C@@H](C)c3cc(NC(=O)Cc4ccc(F)c(CN5CCN(C)CC5)n4)ccc3C)nc2n1 [Compound 726, (S)-N-(3-(1-((2-ethyl-2H-pyrazolo[3,4-b]pyrazin-6-yl)amino)ethyl)-4-methylphenyl)-2-(5-fluoro-6-((4-methylpiperazin-1-yl)methyl)pyridin-2-yl)acetamide] |
| < 300 | < 300 | Cc1ncc(C(=O)Nc2cccc([C@H](C)Nc3cnc4cnn(C)c4n3)c2)cc1C(F)(F)F [Compound 124, (S)-6-methyl-N-(3-(1-((1-methyl-1H-pyrazolo[3,4-b]pyrazin-6-yl)amino)ethyl)phenyl)-5-(trifluoromethyl) nicotinamide] |
| < 300 | < 300 | CCn1cc2ncc(N[C@@H](C)c3cc(NC(=O)c4cncc(C)c4)ccc3C)nc2n1 [Compound 510, (S)-N-(3-(1-((2-ethyl-2H-pyrazolo[3,4-b]pyrazin-6-yl)amino)ethyl)-4-methylphenyl)-5-methylnicotinamide] |
| < 300 | < 300 | CCc1cncc(C(=O)Nc2cccc([C@H](C)Nc3cnc4cn[nH]c4n3)c2)c1 [Compound 91, (S)-N-(3-(1-((1H-pyrazolo[3,4-b]pyrazin-6-yl)amino)ethyl)phenyl)-5-ethylnicotinamide] |
| < 300 | < 300 | CCn1cc2ncc(N[C@@H](C)c3cc(NC(=O)c4cnc(N5CCN(C)CC5)c(C)c4)ccc3F)nc2n1 [Compound 432, (S)-N-(3-(1-((2-ethyl-2H-pyrazolo[3,4-b]pyrazin-6-yl)amino)ethyl)-4-fluorophenyl)-5-methyl-6-(4-methylpiperazin-1-yl)nicotinamide] |
| < 300 | < 300 | CCn1cc2ncc(N[C@@H](C)c3cccc(NC(=O)c4ccc(CN5CC(O)C5)c(Cl)c4)c3)nc2n1 [Compound 487, (S)-3-chloro-N-(3-(1-((2-ethyl-2H-pyrazolo[3,4-b]pyrazin-6-yl)amino)ethyl)phenyl)-4-((3-hydroxyazetidin-1-yl)methyl) benzamide] |
| < 300 | < 300 | CC(C)n1cc(C(=O)Nc2cccc([C@H](C)Nc3cnc4cn[nH]c4n3)c2)cn1 [Compound 100, (S)-N-(3-(1-((1H-pyrazolo[3,4-b]pyrazin-6-yl)amino)ethyl)phenyl)-1-isopropyl-1H-pyrazole-4-carboxamide] |
| < 300 | < 300 | CCn1cc2ncc(N[C@@H](C)c3cc(NC(=O)c4ccc(C(F)(F)F)nc4)ccc3Cl)nc2n1 [Compound 458, (S)-N-(4-chloro-3-(1-((2-ethyl-2H-pyrazolo[3,4-b]pyrazin-6-yl)amino)ethyl)phenyl)-6-(trifluoromethyl)nicotinamide] |
| < 300 | < 300 | CCn1cc2ncc(N[C@@H](C)c3cc(NC(=O)c4cnc(N5CCN(C)CC5)c(C(F)(F)F)c4)ccc3F)nc2n1 [Compound 445, (S)-N-(3-(1-((2-ethyl-2H-pyrazolo[3,4-b]pyrazin-6-yl)amino)ethyl)-4-fluorophenyl)-6-(4-methylpiperazin-1-yl)-5-(trifluoromethyl)nicotinamide] |
| < 300 | 300 to 1000 | CCn1cc2ncc(N[C@@H](C)c3cccc(NC(=O)c4cnc(NC)c(C)c4)c3)nc2n1 [Compound 380, (S)-N-(3-(1-((2-ethyl-2H-pyrazolo[3,4-b]pyrazin-6-yl)amino)ethyl)phenyl)-5-methyl-6-(methylamino)nicotinamide] |
| < 300 | 300 to 1000 | C#Cc1cncc(C(=O)Nc2cccc([C@H](C)Nc3cnc4cnn(C)c4n3)c2)c1 [Compound 113, (S)-5-ethynyl-N-(3-(1-((1-methyl-1H-pyrazolo[3,4-b]pyrazin-6-yl)amino)ethyl)phenyl)nicotinamide] |
| < 300 | < 300 | CCn1cc2ncc(N[C@@H](C)c3cccc(NC(=O)c4cnc(OCC5CC5)c(C)c4)c3)nc2n1 [Compound 315, (S)-6-(cyclopropylmethoxy)-N-(3-(1-((2-ethyl-2H-pyrazolo[3,4-b]pyrazin-6-yl)amino)ethyl)phenyl)-5-methylnicotinamide] |
| < 300 | < 300 | C[C@H](Nc1cnc2cc(C3CC3)sc2n1)c1cc(NC(=O)c2ccc(C(F)(F)F)nc2)ccc1F [Compound 616, (S)-N-(3-(1-((6-cyclopropylthieno[2,3-b]pyrazin-3-yl)amino)ethyl)-4-fluorophenyl)-6-(trifluoromethyl)nicotinamide] |
| < 300 | < 300 | CCn1cc2ncc(N[C@@H](C)c3cc(NC(=O)c4ccc(OC(F)F)nc4)ccc3F)nc2n1 [Compound 304, (S)-6-(difluoromethoxy)-N-(3-(1-((2-ethyl-2H-pyrazolo[3,4-b]pyrazin-6-yl)amino)ethyl)-4-fluorophenyl)nicotinamide] |
| 300 to 1000 | ≥ 1000 | Cc1cncc(C(=O)Nc2cccc([C@H](C)Nc3cnc4ccn(C)c4c3)c2)c1 [Compound 80, (S)-5-methyl-N-(3-(1-((1-methyl-1H-pyrrolo[3,2-b]pyridin-6-yl)amino)ethyl)phenyl)nicotinamide] |
| < 300 | < 300 | Cc1cncc(C(=O)Nc2cccc([C@H](C)Nc3cnc4cccc(F)c4c3)c2)c1 [Compound 29, (S)-N-(3-(1-((5-fluoroquinolin-3-yl)amino)ethyl)phenyl)-5-methylnicotinamide] |
| < 300 | < 300 | Cc1n[nH]c2ncc(N[C@@H](C)c3cccc(NC(=O)c4ccc(OC(F)(F)F)nc4)c3)nc12 [Compound 536, (S)-N-(3-(1-((3-methyl-1H-pyrazolo[3,4-b]pyrazin-5-yl)amino)ethyl)phenyl)-6-(trifluoromethoxy)nicotinamide] |
| < 300 | < 300 | CCn1cc2ncc(N[C@@H](C)c3cc(NC(=O)c4ccc(CN5CCCC5)c(Cl)c4)ccc3F)nc2n1 [Compound 426, (S)-3-chloro-N-(3-(1-((2-ethyl-2H-pyrazolo[3,4-b]pyrazin-6-yl)amino)ethyl)-4-fluorophenyl)-4-(pyrrolidin-1-ylmethyl) benzamide] |
| < 300 | 300 to 1000 | Cc1c[nH]c2ncc(N[C@@H](C)c3cccc(NC(=O)c4cc(C(F)(F)F)n(C)n4)c3)nc12 [Compound 567, (S)-1-methyl-N-(3-(1-((7-methyl-5H-pyrrolo[2,3-b]pyrazin-2-yl)amino)ethyl)phenyl)-5-(trifluoromethyl)-1H-pyrazole-3-carboxamide] |
| < 300 | < 300 | Cc1cncc(C(=O)Nc2cccc([C@H](C)Nc3cnc4ccc(C)cc4n3)c2)c1 [Compound 38, (S)-5-methyl-N-(3-(1-((7-methylquinoxalin-2-yl)amino)ethyl)phenyl)nicotinamide] |
| < 300 | < 300 | Cc1cc(C(=O)Nc2cccc([C@H](C)Nc3cnc4cn[nH]c4n3)c2)cnc1C(F)(F)F [Compound 98, (S)-N-(3-(1-((1H-pyrazolo[3,4-b]pyrazin-6-yl)amino)ethyl)phenyl)-5-methyl-6-(trifluoromethyl)nicotinamide] |
| < 300 | < 300 | CCc1cncc(C(=O)Nc2cccc([C@H](C)Nc3cnc4cnn(C)c4n3)c2)c1 [Compound 101] |
| < 300 | ≥ 1000 | CCn1cc2ncc(N[C@@H](C)c3cc(NC(=O)Cc4ccc(C5CCC5)nc4)ccc3C)nc2n1 [Compound 672, (S)-2-(6-cyclobutylpyridin-3-yl)-N-(3-(1-((2-ethyl-2H-pyrazolo[3,4-b]pyrazin-6-yl)amino)ethyl)-4-methylphenyl) acetamide] |
| < 300 | < 300 | C[C@H](Nc1cnc2cnn(C)c2n1)c1cccc(NC(=O)c2cncc(C(C)(C)F)c2)c1 [Compound 108, (S)-5-(2-fluoropropan-2-yl)-N-(3-(1-((1-methyl-1H-pyrazolo[3,4-b]pyrazin-6-yl)amino)ethyl)phenyl) nicotinamide] |
| < 300 | < 300 | COc1cc(C(=O)Nc2cccc([C@H](C)Nc3cnc4cnn(C)c4n3)c2)cnc1Cl [Compound 249, (S)-6-chloro-5-methoxy-N-(3-(1-((1-methyl-1H-pyrazolo[3,4-b]pyrazin-6-yl)amino)ethyl)phenyl)nicotinamide] |
| < 300 | < 300 | CCn1cc2ncc(N[C@@H](C)c3cccc(NC(=O)c4ccc(OC(F)F)c(Cl)c4)c3)nc2n1 [Compound 450, (S)-3-chloro-4-(difluoromethoxy)-N-(3-(1-((2-ethyl-2H-pyrazolo[3,4-b]pyrazin-6-yl)amino)ethyl)phenyl)benzamide] |
